Laboratory results taken from patent US20250008956A1, “COMPOSITIONS AND A METHOD OF IMPROVING PLANT HEALTH AND CONTROLLING INSECTS” (UPL LIMITED, priority 2021, published 2025).

Columns and labels:
Format in all cases: in vivo
rice crop [1] = test: White ear count in rice crop; details: GR, g a.i./ha: Flupyrimin 150, Cartap 1000, Cartap + EMA 581, Fipronil 60
Description: (§1) Injury in plants is often first noticed when the youngest partially unfurled leaf of the plant begins to whiter and die, resulting in a condition called dead heart. Dead hearts can be caused by any stem borer. Typical bore holes will be seen on the stem. Usually, a single larva is seen inside the stem. It remains inside the stem and feeds on the internal contents. The shoot of the affected plant can be pulled off easily, a symptom known as dead heart. At maturity, the grains become chaffy, which is known as white ear and eventually the whole plant finally dies.
(§2) The phytotonic effect of flupyrimin in rice crop in terms of the dead heart count, number of ears, productive tillers/hill and the hill stability were determined.

rice crop [2] = test: Number of tillers and productive tillers per hill in rice crop; details: for No. of tillers/hill at 45 DAA / No. of productive tillers/hill at heading: rice, GR, g a.i./ha: Flupyrimin 150, Cartap 1000, Cartap + EMA 581, Fipronil 60
rice crop [3] = test: Dead heart count in rice crop; details: GR, g a.i./ha: Flupyrimin 150, Cartap 1000, Cartap + EMA 581, Fipronil 60; for Dead hearts (count) 7 DAA: 7 days after application; for Dead hearts (count) 14 DAA: 14 days after application; for Dead hearts (count) 21 DAA: 21 days after application; for Dead hearts (count) 28 DAA: 28 days after application; for Dead hearts (count) Pre-count: pre-count before application
Description: as §1, §2
The observations were made at 7DAA, 14 DAA, 21 DAA and 28 DAA (days after application).

rice = test: Hill stability test (tiller sturdiness, girth) in rice; details: flupyrimin composition (2% GR)
Method: The hill stability test was performed to determine the tiller strength of the hill. Accordingly, rice was subjected to flupyrimin treatment at 23 days after transplanting (DAT) and observations were taken at 20 DAA (days after application).
Hill stability is an important plant growth feature, as it protects the crop from lodging. It becomes especially important in tall varieties and in areas prone to high winds, cyclones, heavy rains etc. Due to hill stability, the plant is able to sustain the natural forces. Hill stability is also important in case of high pest and disease pressure, which makes the plant weak and loses the tiller strength.

wheat [4] = test: Plant height, root length, tillers and plant vigor in wheat after seed treatment
Method: (§3) The present inventors have observed the phytotonic effect of flupyrimin in wheat by determining the % germination, plant height, root length (cm) and plant vigor The seeds were treated with 500 g/L flupyrimin flowable concentrate (FS) formulation. The observations were made at 30 DAS and 45 DAS (days after seeding).

[5] = test system: Nilaparvata lugens BPH (Brown plant hopper); test: Brown plant hopper infestation after application; details: up-to 45 Days After application of composition comprising flupyrimin and/or a salt thereof
mustard = test: Plant height, root length and plant vigor in mustard after seed treatment; details: 500 g/L FS
Method: as §3, with “mustard seeds” for “wheat”, “vigor.” for “vigor”

wheat [6] = test: % germination of wheat seed after seed treatment; details: seed treatment 500 g/L FS
Method: The present inventors have observed the phytotonic effect of flupyrimin in wheat by determining the % germination, plant height, root length (cm) and plant vigor The seeds were treated with 500 g/L flupyrimin flowable concentrate (FS) formulation. […]

wheat [7] = test: Yield and test weight in wheat after seed treatment; set-up: Test weight (1000 grain weight): unit not given here
[8] = 1.2 g AI/kg of seed (2.4 ml/kg)
[9] = 2.0 g AI/kg of seed (4.0 ml/kg)

SMILES: CN(C)C(CSC(N)=O)CSC(N)=O [Cartap]
- White ear/hill at heading (rice crop [1]): 2.33
- No. of tillers/hill at 45 DAA (rice crop [2]): 18.07
- No. of productive tillers/hill at heading (rice crop [2]): 13.77
- Dead hearts (count) 7 DAA (rice crop [3]): 0.21 count
- Dead hearts (count) 14 DAA (rice crop [3]): 1.54 count
- Dead hearts (count) 21 DAA (rice crop [3]): 3.08 count
- Dead hearts (count) 28 DAA (rice crop [3]): 2.17 count
- Dead hearts (count) Pre-count (rice crop [3]): 0.00 count

SMILES: N#Cc1nn(-c2c(Cl)cc(C(F)(F)F)cc2Cl)c(N)c1[S+]([O-])C(F)(F)F (centres unmarked) [Fipronil]
- White ear/hill at heading (rice crop [1]): 1.27
- No. of tillers/hill at 45 DAA (rice crop [2]): 19
- No. of productive tillers/hill at heading (rice crop [2]): 15.63
- Dead hearts (count) 7 DAA (rice crop [3]): 0.00 count
- Dead hearts (count) 14 DAA (rice crop [3]): 0.40 count
- Dead hearts (count) 21 DAA (rice crop [3]): 2.19 count
- Dead hearts (count) 28 DAA (rice crop [3]): 1.24 count
- Dead hearts (count) Pre-count (rice crop [3]): 0.00 count

SMILES: O=C(/N=c1\ccccn1Cc1ccc(Cl)nc1)C(F)(F)F [Flupyrimin, N-[(E)-1-(6-chloro-3-pyridinylmethyl)pyridin-2 (1H)-ylidene]-2,2,2-trifluoroacetamide]
- Girth of tillers compared to untreated rice (rice): almost twice the girth
- No. of tillers/plant 30 DAS (wheat [4]; [8]): 5.8
- Plant Height (cm) 30 DAS (wheat [4]; [8]): 42.4 cm
- Plant Vigor (0-5 Index scale) 30 DAS (wheat [4]; [8]): 5.0 0-5 Index scale
- Root length (cm) 30 DAS (wheat [4]; [8]): 11.5 cm
- No. of tillers/plant 45 DAS (wheat [4]; [8]): 6.4
- Plant Height (cm) 45 DAS (wheat [4]; [8]): 57.9 cm
- Plant Vigor (0-5 Index scale) 45 DAS (wheat [4]; [8]): 5.0 0-5 Index scale
- Root length (cm) 45 DAS (wheat [4]; [8]): 12.3 cm
- No. of tillers/plant 30 DAS (wheat [4]; [9]): 5.8
- Plant Height (cm) 30 DAS (wheat [4]; [9]): 43.3 cm
- Plant Vigor (0-5 Index scale) 30 DAS (wheat [4]; [9]): 5.0 0-5 Index scale
- Root length (cm) 30 DAS (wheat [4]; [9]): 11.8 cm
- No. of tillers/plant 45 DAS (wheat [4]; [9]): 6.5
- Plant Height (cm) 45 DAS (wheat [4]; [9]): 58.1 cm
- Plant Vigor (0-5 Index scale) 45 DAS (wheat [4]; [9]): 5.0 0-5 Index scale
- Root length (cm) 45 DAS (wheat [4]; [9]): 12.7 cm
- Nilaparvata lugens BPH infestation [5]: no Nilaparvata lugens BPH (Brown plant hopper) infestation is found
- White ear/hill at heading (rice crop [1]): 0.17
- Plant Height (cm) 30 DAS (mustard; 4 g AI/kg of seed (8 ml/kg)): 21.7 cm
- Plant Vigor (0-5 Index scale) 30 DAS (mustard; 4 g AI/kg of seed (8 ml/kg)): 5.0 0-5 Index scale
- Root length (cm) 30 DAS (mustard; 4 g AI/kg of seed (8 ml/kg)): 18.2 cm
- Plant Height (cm) 45 DAS (mustard; 4 g AI/kg of seed (8 ml/kg)): 93.2 cm
- Plant Vigor (0-5 Index scale) 45 DAS (mustard; 4 g AI/kg of seed (8 ml/kg)): 5.0 0-5 Index scale
- Root length (cm) 45 DAS (mustard; 4 g AI/kg of seed (8 ml/kg)): 20.8 cm
- Plant Height (cm) 30 DAS (mustard; 6 g AI/kg of seed (12 ml/kg)): 22.8 cm
- Plant Vigor (0-5 Index scale) 30 DAS (mustard; 6 g AI/kg of seed (12 ml/kg)): 5.0 0-5 Index scale
- Root length (cm) 30 DAS (mustard; 6 g AI/kg of seed (12 ml/kg)): 18.3 cm
- Plant Height (cm) 45 DAS (mustard; 6 g AI/kg of seed (12 ml/kg)): 95.6 cm
- Plant Vigor (0-5 Index scale) 45 DAS (mustard; 6 g AI/kg of seed (12 ml/kg)): 5.0 0-5 Index scale
- Root length (cm) 45 DAS (mustard; 6 g AI/kg of seed (12 ml/kg)): 21.1 cm
- Greater number of tillers against the market standards (average) (rice crop [2]; rice crop, granular formulation): 2-3
- No. of tillers/hill at 45 DAA (rice crop [2]): 22.47
- No. of productive tillers/hill at heading (rice crop [2]): 19.63
- % Germination of Wheat Seed 6 DAS (wheat [6]; [8]): 92.0%
- % Germination of Wheat Seed 9 DAS (wheat [6]; [8]): 93.0%
- % Germination of Wheat Seed 12 DAS (wheat [6]; [8]): 95.5%
- % Germination of Wheat Seed 6 DAS (wheat [6]; [9]): 92.0%
- % Germination of Wheat Seed 9 DAS (wheat [6]; [9]): 93.8%
- % Germination of Wheat Seed 12 DAS (wheat [6]; [9]): 96.0%
- Test weight (1000 grain weight) (wheat [7]; [8]): 55.3
- Yield (Qt/ha) (wheat [7]; [8]): 37.4 Qt/ha
- Test weight (1000 grain weight) (wheat [7]; [9]): 56.5
- Yield (Qt/ha) (wheat [7]; [9]): 37.8 Qt/ha
- Dead hearts (count) 7 DAA (rice crop [3]): 0.00 count
- Dead hearts (count) 14 DAA (rice crop [3]): 0.00 count
- Dead hearts (count) 21 DAA (rice crop [3]): 0.04 count
- Dead hearts (count) 28 DAA (rice crop [3]): 0.01 count
- Dead hearts (count) Pre-count (rice crop [3]): 0.00 count
